Earlier results as cited in US20200078478A1, “Structural molecule of peptide derivative for PSMA-targeting radiotherapy diagnosis and treatment” (priority 2018, published 2020).

Conditions: Lu-177 labeled, clinical treatment

O=C(O)CC[C@H](NC(=O)N[C@@H](CCCCNC(=O)[C@H](Cc1ccc2ccccc2c1)NC(=O)[C@H]1CC[C@H](CNC(=O)CN2CCN(CC(=O)O)CCN(CC(=O)O)CCN(CC(=O)O)CC2)CC1)C(=O)O)C(=O)O [PSMA-617]
half-life: 10.8 h
